One assay deals with T1, TLR7 (Homo sapiens, UniProt Q9NYK1).
T1 construct: expressed in transfected cells; host or cells: HEK/293 cells carrying TLR7 and an NF-kB luciferase reporter
T1 sequence (Q9NYK1 27-1049): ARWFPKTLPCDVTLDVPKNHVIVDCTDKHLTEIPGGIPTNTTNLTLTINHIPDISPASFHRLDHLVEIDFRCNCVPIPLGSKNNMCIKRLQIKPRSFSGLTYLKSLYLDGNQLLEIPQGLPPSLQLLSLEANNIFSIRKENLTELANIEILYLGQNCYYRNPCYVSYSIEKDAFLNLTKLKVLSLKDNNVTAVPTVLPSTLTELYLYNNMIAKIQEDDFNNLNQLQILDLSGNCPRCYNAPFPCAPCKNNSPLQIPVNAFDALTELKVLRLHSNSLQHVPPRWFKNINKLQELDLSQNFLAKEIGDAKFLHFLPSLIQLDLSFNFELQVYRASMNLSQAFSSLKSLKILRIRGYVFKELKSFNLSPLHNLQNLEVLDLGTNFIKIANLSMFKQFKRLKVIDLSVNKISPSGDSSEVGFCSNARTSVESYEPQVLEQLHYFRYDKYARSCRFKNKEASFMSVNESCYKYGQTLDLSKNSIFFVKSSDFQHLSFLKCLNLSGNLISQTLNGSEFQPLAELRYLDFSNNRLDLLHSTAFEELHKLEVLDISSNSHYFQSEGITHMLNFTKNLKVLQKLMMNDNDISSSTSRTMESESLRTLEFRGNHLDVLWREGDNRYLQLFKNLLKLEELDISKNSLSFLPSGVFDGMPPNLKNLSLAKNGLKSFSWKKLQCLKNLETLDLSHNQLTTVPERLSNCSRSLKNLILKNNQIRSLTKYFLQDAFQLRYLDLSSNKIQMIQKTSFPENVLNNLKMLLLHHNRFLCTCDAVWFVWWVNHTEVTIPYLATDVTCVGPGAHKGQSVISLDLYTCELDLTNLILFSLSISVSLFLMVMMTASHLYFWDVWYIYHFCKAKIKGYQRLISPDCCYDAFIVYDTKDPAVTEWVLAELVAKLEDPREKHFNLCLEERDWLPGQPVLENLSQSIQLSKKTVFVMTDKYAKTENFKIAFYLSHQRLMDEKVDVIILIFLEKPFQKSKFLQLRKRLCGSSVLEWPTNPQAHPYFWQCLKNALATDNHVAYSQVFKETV
The experiment in a line: HEK/293 TLR7 Cell Assay. Format: cell-based. Conditions: TLR7/NFKb HEK cells, R848 agonist 10 uM final concentration, Steady-Glo readout; read-out: TLR7 potency. The gist of the method: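 Compounds added to HEK cells expressing TLR7 with an NFκB reporter 30 min ahead of 10 uM R848 challenge; luciferase signal (Steady-Glo) measured after 5 h, cells having been seeded 24 h earlier at 5000 per well.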

The target of the next assay is T2, TLR8 (Homo sapiens, UniProt Q9NR97).
T2 construct: expressed in transfected cells; host or cells: HEK/293 reporter cells (NF-kB luciferase)
T2 sequence (Q9NR97 27-1041): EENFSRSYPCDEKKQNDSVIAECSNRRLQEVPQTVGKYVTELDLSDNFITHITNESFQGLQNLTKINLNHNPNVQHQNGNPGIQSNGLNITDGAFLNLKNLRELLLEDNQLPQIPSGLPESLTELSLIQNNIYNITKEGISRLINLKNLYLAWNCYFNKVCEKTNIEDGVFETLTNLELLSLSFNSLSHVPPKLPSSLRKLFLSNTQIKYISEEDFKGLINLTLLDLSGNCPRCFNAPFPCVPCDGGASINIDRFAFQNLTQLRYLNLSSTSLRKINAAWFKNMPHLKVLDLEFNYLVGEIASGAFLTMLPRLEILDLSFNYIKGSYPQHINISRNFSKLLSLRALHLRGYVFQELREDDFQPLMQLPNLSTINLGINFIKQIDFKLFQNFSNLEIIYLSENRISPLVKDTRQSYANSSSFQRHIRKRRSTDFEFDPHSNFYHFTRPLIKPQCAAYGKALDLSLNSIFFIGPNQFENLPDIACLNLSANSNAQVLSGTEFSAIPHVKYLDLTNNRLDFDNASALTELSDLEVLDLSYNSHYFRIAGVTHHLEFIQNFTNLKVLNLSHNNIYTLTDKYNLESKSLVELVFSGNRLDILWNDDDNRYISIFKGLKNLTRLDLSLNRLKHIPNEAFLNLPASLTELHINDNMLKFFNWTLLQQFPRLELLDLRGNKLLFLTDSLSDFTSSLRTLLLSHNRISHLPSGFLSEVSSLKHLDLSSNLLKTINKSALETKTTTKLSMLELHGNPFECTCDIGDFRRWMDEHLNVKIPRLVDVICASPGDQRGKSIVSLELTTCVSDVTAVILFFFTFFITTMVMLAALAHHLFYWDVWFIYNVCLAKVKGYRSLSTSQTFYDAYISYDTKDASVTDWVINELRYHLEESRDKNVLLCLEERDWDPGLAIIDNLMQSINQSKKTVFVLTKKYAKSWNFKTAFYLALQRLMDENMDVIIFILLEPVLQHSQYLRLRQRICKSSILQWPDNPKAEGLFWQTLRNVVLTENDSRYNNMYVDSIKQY
The experiment in a line: HEK/293 TLR8 Cell Assay. The class given is cell-based. Conditions: HEK cells, R848 agonist 30 uM final concentration, Steady-Glo readout; read-out: TLR8 potency.

Structures can show the parent of a compound that is named as a salt.

In the case of `C[C@@H]1CN(c2cnc(C#N)c3ncccc23)C[C@H](C(=O)NCC2(F)CCN(C)CC2)O1` [Example 348, (2R,6R)-4-(8-Cyano-[1,7]naphthyridin-5-yl)-6-methyl-morpholine-2-carboxylic acid (4-fluoro-1-methyl-piperidin-4-ylmethyl)-amide], the IC50 at TLR7 was below 75 nM; at TLR8, above 150 nM.
On to `CC(C)(O)CNC(=O)[C@H]1CN(c2ccc(C#N)c3nccnc23)C[C@@H](C(F)(F)F)O1` (single isomer, unassigned) [Example 284], for which the IC50 is below 75 nM on TLR7 and 75 to 150 nM on TLR8.
For `C[C@H]1C[C@@H](NCCN2CCOC2=O)CN(c2ccc(C(F)(F)F)c3nccnc23)C1` [Example 31, 3-{2-[(3R,5S)-5-Methyl-1-(8-trifluoromethyl-quinoxalin-5-yl)-piperidin-3-ylamino]-ethyl}-oxazolidin-2-one formic acid] the same measures were below 75 nM and below 75 nM.
Take `Cc1ccc(N2C[C@@H](C)C[C@@H](NC(=O)[C@@H](N)CC(N)=O)C2)c2cccnc12` [Example 130, (2S)-2-amino-N-[(3R,5S)-5-methyl-1-(8-methylquinolin-5-yl)piperidin-3-yl]butanediamide]: the IC50 at TLR7 was 75 to 150 nM; at TLR8 it was below 75 nM.
In the case of `C[C@@H]1CN(c2ccc(C#N)c3nccnc23)C[C@H](C(=O)N[C@H]2CNC[C@H]2F)O1` [Example 294, (2R,6R)-4-(8-Cyano-quinoxalin-5-yl)-6-methyl-morpholine-2-carboxylic acid ((3S,4R)-4-fluoro-pyrrolidin-3-yl)-amide hydrochloride (2)], the IC50 on TLR7 and on TLR8 was below 75 nM throughout.
Turning to `CN1CCC(O)(CC(=O)N[C@@H]2C[C@H](C(F)(F)F)CN(c3ccc(C(F)(F)F)c4nccnc34)C2)CC1` [Example 63, 2-(4-hydroxy-1-methylpiperidin-4-yl)-N-[(3R,5S)-5-(trifluoromethyl)-1-[8-(trifluoromethyl)quinoxalin-5-yl]piperidin-3-yl]acetamide], the IC50 at TLR7 and at TLR8 was below 75 nM throughout.
For `CNC(=O)CCN[C@@H]1C[C@H](C)CN(c2ccc(C(F)(F)F)c3ncccc23)C1` [Example 56, N-Methyl-3-[(3R,5S)-5-methyl-1-(8-trifluoromethyl-quinolin-5-yl)-piperidin-3-ylamino]-propionamide], the IC50 at TLR7 is 75 to 150 nM; at TLR8, below 75 nM.
For `C[C@@H]1CN(c2ccc(C#N)c3ncncc23)C[C@H](C(=O)NC2CCC(N3CCOCC3)CC2)O1` (stereo partly drawn) [Example 268, (2R,6R)-4-(8-Cyano-quinazolin-5-yl)-6-methyl-morpholine-2-carboxylic acid (4-morpholin-4-yl-cyclohexyl)-amide] the same measures were below 75 nM and below 75 nM.
For `C[C@H]1C[C@@H](NC(=O)CC2(N)CC2)CN(c2ccc(C#N)c3nccnc23)C1` [Example 120, 2-(1-aminocyclopropyl)-N-[(3R,5S)-1-(8-cyanoquinoxalin-5-yl)-5-methylpiperidin-3-yl]acetamide] the same measures were below 75 nM and below 75 nM.
For `CC(=O)NCCN[C@@H]1C[C@H](C)CN(c2ccc(C(F)(F)F)c3nccnc23)C1` [Example 25, N-{2-[(3R,5S)-5-Methyl-1-(8-trifluoromethyl-quinoxalin-5-yl)-piperidin-3-ylamino]-ethyl}-acetamide formic acid], the IC50 at TLR7 and on TLR8 was below 75 nM each time.
Regarding `C[C@H]1C[C@@H](NC(=O)NCCN(C)C)CN(c2ccc(C(F)(F)F)c3nccnc23)C1` [Example 141, 3-[2-(dimethylamino)ethyl]-1-[(3R,5S)-5-methyl-1-[8-(trifluoromethyl)quinoxalin-5-yl]piperidin-3-yl]urea], the IC50 at TLR7 and on TLR8 was below 75 nM in each case.
`C[C@@H]1CN(c2ccc(C#N)c3nccnc23)C[C@H](CN2CCC(F)(C(=O)O)CC2)O1` [Example 228, 1-[(2S,6R)-4-(8-Cyano-quinoxalin-5-yl)-6-methyl-morpholin-2-ylmethyl]-4-fluoro-piperidine-4-carboxylic acid]: the IC50 on TLR7 and on TLR8 was below 75 nM in each case.
`C[C@H]1C[C@@H](NC(=O)[C@@H](C)N2CCC(O)CC2)CN(c2ccc(C#N)c3nccnc23)C1` (single isomer, unassigned) [Example 103]: the IC50 at TLR7 was above 150 nM; on TLR8, below 75 nM.
As for `C[C@H]1C[C@@H](NCC(C)(C)O)CN(c2ccc(C(F)(F)F)c3ncccc23)C1` [Example 17, 2-Methyl-1-[(3R,5S)-5-methyl-1-(8-trifluoromethyl-quinolin-5-yl)-piperidin-3-ylamino]-propan-2-ol], the IC50 on TLR7 and at TLR8 was below 75 nM in each case.
With `C[C@@H]1CN(c2ccc(C#N)c3nccnc23)C[C@H](C(=O)NCCS(C)(=O)=O)O1` [Example 256, (2R,6R)-4-(8-cyanoquinoxalin-5-yl)-N-(2-methanesulfonylethyl)-6-methyl morpholine-2-carboxamide], the IC50 at TLR7 and on TLR8 was below 75 nM in each case.
In the case of `C[C@@H]1CN(c2ccc(C#N)c3nccnc23)C[C@H](C(=O)N[C@@H]2CCN(CC3CC3)C2)O1` [Example 323, (2R,6R)-4-(8-Cyano-quinoxalin-5-yl)-6-methyl-morpholine-2-carboxylic acid ((R)-cyclopropylmethyl-pyrrolidin-3-yl)-amide], the IC50 at TLR7 and at TLR8 was below 75 nM throughout.
For `C[C@H]1C[C@@H](NCC2CCC(=O)N2)CN(c2ccc(C(F)(F)F)c3ncccc23)C1` (stereo partly drawn) [Example 48, 5-{[(3R,5S)-5-Methyl-1-(8-trifluoromethyl-quinolin-5-yl)-piperidin-3-ylamino]-methyl}-pyrrolidin-2-one], the IC50 at TLR7 and on TLR8 was below 75 nM each time.
As for `N#Cc1ccc(N2C[C@H](NC(=O)CC3(N)CC3)C[C@H](C(F)(F)F)C2)c2nccnc12` [Example 119, 2-(1-aminocyclopropyl)-N-[(3R,5S)-1-(8-cyanoquinoxalin-5-yl)-5-(trifluoromethyl)piperidin-3-yl]acetamide], the results for the IC50 at TLR7 and at TLR8 were 75 to 150 nM and below 75 nM, respectively.
As to `C[C@@H]1CN(c2ccc(C#N)c3nccnc23)C[C@H](CSC2CNC2)O1` [Example 225, 8-[(2R,6R)-2-(Azetidin-3-ylsulfanylmethyl)-6-methyl-morpholin-4-yl]-quinoxaline-5-carbonitrile hydrochloride], the IC50 on TLR7 and on TLR8 was below 75 nM throughout.

(Values after patent US20210300940A1 (Merck Patent GmbH, priority 2018, published 2021).)
